Target: T1, recombinantly expressed human sodium-dependent ileal bile acid transporter (IBAT, ASBT, SLC10A2) (Homo sapiens, UniProt Q12908)
T1 construct: Bases 599 to 1645 correspond to the complete coding region of the human IBAT; expressed in transfected cells
T1 sequence (Q12908 1-348): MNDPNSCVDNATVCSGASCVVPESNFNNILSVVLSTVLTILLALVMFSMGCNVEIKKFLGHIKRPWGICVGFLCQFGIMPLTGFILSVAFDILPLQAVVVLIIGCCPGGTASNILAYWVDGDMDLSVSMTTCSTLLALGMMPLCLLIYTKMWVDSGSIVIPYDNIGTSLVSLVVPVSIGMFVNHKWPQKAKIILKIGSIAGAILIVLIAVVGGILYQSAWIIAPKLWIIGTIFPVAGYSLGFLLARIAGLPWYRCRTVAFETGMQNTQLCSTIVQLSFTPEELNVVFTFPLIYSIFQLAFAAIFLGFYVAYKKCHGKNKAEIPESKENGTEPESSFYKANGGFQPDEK
Assay: in vitro IBAT inhibition test ([3H]-taurocholic acid uptake into CHO-hIBAT cells)
Assay type: cell-based
Description: Biological testing of the compound A according to the invention was carried out using the in vitro IBAT inhibition test. This test examines the effect of the compound according to the invention on the transport activity of the recombinantly expressed human sodium-dependent ileal bile acid transporter (IBAT=ileal Na^+/bile acid contransporter, ASBT=apical sodium-dependent bile acid transporter, SLC10A2=solute carrier family 10, member 2).
Preparation for and practice of the in vitro IBAT inhibition test:
1. Cloning of an Expression Vector for Human IBAT […]
CHO-hIBAT cells were sown at a concentration of 40 000 cells per well in cell culture medium in poly-D-lysine-coated 96-well plates and cultivated for 24h. […] Finally, 100 μL of scintillation fluid were added to each well, and the radioactivity taken up into the cells was determined in a MicroBeta scintillation microplate reader from Wallac.
The half-maximal inhibitory effect of the test compound (IC50 value, inhibitory concentration 50) was determined as follows:
• 1. […] This is the value measured in the absence of substance, measured in sodium-comprising transport assay buffer. • 2. […] This is the value measured in the absence of substance, measured in sodium-free transport assay buffer. • 3. […]

IC50 (CHO-hIBAT cells, taurocholic acid 10 μM, 60 min at room temperature): 57 nM
activity higher compared to comparative example from EP 1 169 313 (relative to compound 11a, from the IC50 (human IBAT) values): 560%
Structure (SMILES): CCCCC1(CCCC)CS(=O)(=O)c2ccc(N(C)C)cc2[C@@H](c2cccc(NC(=O)N[C@@H]3O[C@H](CO)[C@@H](O)[C@H](O)[C@H]3O)c2)N1 [Example A]

From US7615536B2, “1,4-benzothiazepine 1,1-dioxide derivative, process for its preparation, medicaments comprising this compound, and use thereof as a hypolipidaemic” (Sanofi-Aventis Deutschland GmbH, priority 2005, dated 2009)
